Measured values taken from patent US20250340537A1, “PHARMACEUTICALLY ACTIVE COMPOUNDS, COMPOSITIONS, AND METHODS FOR MODULATING PENDRIN” (ARBORMED Co., Ltd., priority 2022, published 2025).

What was measured:
H723R-pendrin [1] = molecular target: T1, H723R-pendrin (Homo sapiens, UniProt O43511, H723R); experiment: YFP fluorescence quenching assay (Cl−/I− exchange activity of pendrin); format: cell-based; details: PANC-1 cells stably expressing human H723R-pendrin and YFP-F46L/H148Q/I152L; compound incubation 20-24 hours; iodide influx
T1 construct: expressed in transfected cells; host or cells: PANC-1
T1 sequence (O43511 1-780 H723R): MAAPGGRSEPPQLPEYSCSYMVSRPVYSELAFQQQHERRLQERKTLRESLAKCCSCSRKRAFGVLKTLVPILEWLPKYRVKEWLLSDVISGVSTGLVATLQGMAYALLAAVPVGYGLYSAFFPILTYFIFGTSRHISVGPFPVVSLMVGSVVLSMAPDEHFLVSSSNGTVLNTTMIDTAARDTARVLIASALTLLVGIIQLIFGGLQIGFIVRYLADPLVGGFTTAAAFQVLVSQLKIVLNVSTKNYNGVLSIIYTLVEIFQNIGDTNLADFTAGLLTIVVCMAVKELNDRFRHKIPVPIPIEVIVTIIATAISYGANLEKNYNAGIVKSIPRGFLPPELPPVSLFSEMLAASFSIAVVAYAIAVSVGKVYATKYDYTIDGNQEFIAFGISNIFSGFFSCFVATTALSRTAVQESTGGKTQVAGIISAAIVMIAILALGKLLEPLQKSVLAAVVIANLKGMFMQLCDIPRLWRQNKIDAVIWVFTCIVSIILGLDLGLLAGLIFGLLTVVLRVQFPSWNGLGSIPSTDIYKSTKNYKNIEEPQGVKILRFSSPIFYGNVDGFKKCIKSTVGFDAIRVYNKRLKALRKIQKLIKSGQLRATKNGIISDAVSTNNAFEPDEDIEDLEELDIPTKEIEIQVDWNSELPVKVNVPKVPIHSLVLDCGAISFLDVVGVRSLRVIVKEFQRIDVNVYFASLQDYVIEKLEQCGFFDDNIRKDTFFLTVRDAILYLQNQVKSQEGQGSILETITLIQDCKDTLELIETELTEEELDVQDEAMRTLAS
How it was run: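 PANC-1 cells stably co-expressing human H723R-pendrin and YFP-F46L/H148Q/I152L, treated with compounds for 20-24 h at 37 °C. Initial iodide influx rate after NaI-substituted HEPES buffer (pH 7.4) addition, taken from the initial slope of YFP fluorescence quench by nonlinear regression. EC50 reported in bins.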

H723R-pendrin [2] = molecular target: T1, H723R-pendrin; experiment: PTI assay (Cl−/HCO3− exchange activity); format: cell-based; details: PANC-1 cells, BCECF pHi
Description: Measurements of intracellular pH (pHi) in PANC-1 cells were performed with the pH-sensitive fluorescent probe 2′,7′-bis-(2-carboxyethyl)-5-(and-6)-carboxyfluorescein (BCECF) according to previously reported protocols. Briefly, cells were incubated with 2 μM BCECF acetoxy-methylester for 5 min and then perfused with a HCO3^−-buffered solution [containing 120 mM NaCl, 5 mM KCl, 1 mM MgCl2, 1 mM CaCl2, 10 mM d-glucose, 5 mM Hepes, and 25 mM NaHCO3 (pH 7.4)].
BCECF fluorescence was recorded at excitation wavelengths of 490 and 440 nm at a resolution of 2/s on a recording setup. The Cl^−/HCO3^− exchange activities were estimated from the initial rate of pHi increase as a result of Cl^− removal from the HCO3^−-containing buffer (25 mM HCO3^− with 5% CO2).
The pHi calibration was performed with standard pH solutions containing 150 mM KCl and 5 μM nigericin. The intrinsic buffer capacity (βi) was calculated by measuring ΔpHi in response to 5 to 40 mM NH4Cl pulses in Na^+-free solutions. Because the βi values were not substantially affected by transfection with the plasmids encoding for WT-pendrin or H723R-pendrin, the Cl^−/HCO3^− exchange activities were expressed as ΔpH unit/min without compensating for the buffer capacity.
It is indicated as exchange % with the following key: A=Exchange % greater than 50%; B=Exchange % less than 50%.

| EC50 (H723R-pendrin [1]) [µM] | Cl−/HCO3− exchange, % of WT-hPDS (H723R-pendrin [2]; 3 uM) | Cl−/HCO3− exchange, % of WT-hPDS (H723R-pendrin [2]; 10 uM) | SMILES |
| --- | --- | --- | --- |
| < 5 | A (A=Exchange % greater than 50%) | A (A=Exchange % greater than 50%) | NC1=C(c2cncc(-c3ccc(O)c(O)c3)n2)C(=O)CN1c1ccccc1Cl [Compound 9] |
| < 5 | A (A=Exchange % greater than 50%) | A (A=Exchange % greater than 50%) | NC1=C(c2cncc(-c3ccc(O)c(O)c3)n2)C(=O)CN1CC1CCCC1 [Compound 18] |
| < 5 | A (A=Exchange % greater than 50%) | A (A=Exchange % greater than 50%) | COc1cc(-c2nccc(C3=C(N)N(CC4CCCC4)CC3=O)n2)ccc1O [Compound 105] |
